Measured values published in patent US12220412B2, “Methods for administering corticosteroids” (Sparrow Pharmaceuticals, Inc., priority 2018, dated 2025).

Legend:
[1] = Population pharmacokinetics model for Compound A from two clinical trials; type: in vivo, human
Protocol: On the basis of data from two Compound A clinical trials, a population pharmacokinetics model (FIG. 4) was developed using a maximal dose of 20 mg. The selected model to describe the pharmacokinetics of Compound A was a two-compartment disposition model, with a 4-compartment transit absorption, saturable binding from the central compartment, and first-order elimination. Inter-individual variability was implemented on clearance (CL), volume of distribution (V2), absorption rate constant (kA), second order association constant (Kon), first order dissociation constant (Koff), and total number of saturable binding receptors (R). This model had satisfactory goodness-of-fit and acceptable relative standard errors.
CL, kA, R, Kon, and Koff are defined above. BAV is relative bioavailability, kTR is a transit rate constant (equal to kA), k23 and k32 are transfer rate constants between central and peripheral compartments.
The covariate effect was moderate (25% increase of BAV in 88-year old subjects compared to 36-year old subjects).

[2] = test system: Adults with painful diabetic peripheral neuropathy; test: 6-week randomized trial in adults with painful diabetic peripheral neuropathy (pain relief, glycemic control, lipids, blood pressure, weight); type: in vivo, human; design: Weight / HbA1c (%) / Plasma glucose / Urine glucose (% positive) / Cholesterol / Triglycerides / Systolic BP (mm Hg) / Diastolic BP (mm Hg): reference not given here
Protocol: Adults with painful diabetic peripheral neuropathy were randomized to treatment with SPI-62, placebo for SPI-62, or pregabalin (positive control) for 6 weeks. […] The trial was terminated. Descriptive analysis on parameters of glycemic control, blood lipids, blood pressure, and weight was conducted. […] As this was an exploratory analysis, statistical hypothesis tests were not performed.

[3] = test system: magnesium-deficient mice; test: Corticosterone (CS)-induced tail biting behavior in magnesium-deficient mice given N-methyl-D-aspartate; type: in vivo; settings: N-methyl-D-aspartate and corticosterone, single doses of 0.3 to 3 mg/kg
Excerpt: (§1) (a) no CS; (b)-(f) CS; dosage of Compound A (mg/kg): (b) 0; (c) 0.01; (d) 0.03; (e) 1; (f) 3.
Increased tail biting, an anxiety behavior, was induced in magnesium-deficient mice with administration of N-methyl-D-aspartate and corticosterone (CS). Tail biting was not induced by N-methyl-D-aspartate without co-administration of CS (FIG. 9(a)).

[4] = test system: mice; test: Corticosterone-induced deficit of Y-maze exploration (alternation rate); type: in vivo; settings: single doses of 0.3 to 3 mg/kg
Excerpt: as §1
Mice typically prefer to explore the novel arm of a Y-maze, a behavior considered indicative of short-term memory. Corticosterone (CS) decreases the percentage of times mice enter the novel arm of a Y maze, and so is considered to have a negative cognitive effect.

[5] = target: HSD-1 (Homo sapiens, UniProt P28845); test: Urinary (tetrahydrocortisol+allotetrahydrocortisol)/tetrahydrocortisone ratio as indicator of HSD-1 activity in clinical trial subjects; type: in vivo; design: from tissue; host or cells: in vivo, human subjects; settings: for mean HSD-1 ratio (significantly decreased HSD-1 activity): both days 1 and 18
HSD-1, sequence (P28845 whole entry): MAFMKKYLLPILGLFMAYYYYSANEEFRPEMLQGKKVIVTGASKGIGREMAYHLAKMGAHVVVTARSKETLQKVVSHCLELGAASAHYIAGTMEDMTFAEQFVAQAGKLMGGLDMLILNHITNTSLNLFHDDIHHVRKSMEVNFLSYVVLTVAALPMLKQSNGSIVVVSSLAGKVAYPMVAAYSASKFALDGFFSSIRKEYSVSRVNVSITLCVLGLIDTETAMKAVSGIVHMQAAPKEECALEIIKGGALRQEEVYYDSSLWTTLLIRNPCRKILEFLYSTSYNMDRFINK
Protocol: Following a minimum of a 10-hour fast, healthy adult racially diverse male and female subjects were administered Compound A (ASP3662) or placebo for Compound A with 240 mL of room temperature water. Subjects continued to fast from any food and drinks (water was allowed as desired except for 1 hour before and 1 hour after study drug administration) until 4 hours after study drug administration. Urine samples were collected for the measurement of cortisol, cortisone, tetrahydrocortisol (5α, 5β) and tetrahydrocortisone. The cumulative amount of each entity excreted in the urine was calculated for each subject from time zero to 24 hours after dosing (Ae24), from 24 hours after dosing to 48 hours after dosing (Ae48), and Aelast.
The ratio of 5α-tetrahydrocortisol+5β-tetrahydrocortisol to urinary tetrahydrocortisone was used as an indicator of HSD-1 activity. Compound A decreased the 5α-tetrahydrocortisol+5β-tetrahydrocortisol to urinary tetrahydrocortisone ratio with increasing dose compared to placebo, resulting in approximately 80% inhibition at 6 mg. […]

[6] = adults with painful diabetic peripheral neuropathy, 6 weeks treatment, descriptive analysis
[7] = elderly non-Japanese subjects, 20 mg, Day 1 single dose, 24 h urine
[8] = elderly non-Japanese subjects, 20 mg, Day 18 after daily doses Days 5 through 18, 24 h urine
[9] = healthy adult Japanese subjects, 10 mg, Day 1 single dose, 24 h urine
[10] = healthy adult Japanese subjects, 10 mg, Day 18 after daily doses Days 5 through 18, 24 h urine
[11] = healthy adult Japanese subjects, 20 mg, Day 1 single dose, 24 h urine
[12] = healthy adult Japanese subjects, 20 mg, Day 18 after daily doses Days 5 through 18, 24 h urine
[13] = healthy adult Japanese subjects, 50 mg, Day 1 single dose, 24 h urine
[14] = healthy adult Japanese subjects, 50 mg, Day 18 after daily doses Days 5 through 18, 24 h urine

increase of BAV (relative bioavailability), covariate effect of age ([1]; 88-year old subjects compared to 36-year old subjects): 25% | Covariate: age on BAV (relative bioavailability), estimate ([1]; population PK model): 0.200 | Koff (first order dissociation constant, saturable binding), estimate ([1]; population PK model): 5.83e-05 s⁻¹ | Kon (second order association constant, saturable binding), estimate ([1]; population PK model): 0.0682 µg⁻¹ h⁻¹ | R (total number of saturable binding receptors), estimate ([1]; population PK model): 3170 nmol | V2 (volume of distribution), estimate ([1]; population PK model): 90.2 L/70 kg | amount of Compound A corresponding to estimated total number of saturable binding receptors ([1]; population PK model): 1.347 mg | k23 (transfer rate constant between central and peripheral compartments), estimate ([1]; population PK model): 0.00341 h^−1/(70 kg)^−0.25 | k32 (transfer rate constant between central and peripheral compartments), estimate ([1]; population PK model): 0.0255 h^−1/(70 kg)^−0.25 | kA (absorption rate constant), estimate ([1]; population PK model): 5.38 h⁻¹ | CL (clearance), estimate ([1]; population PK model, doses up to 20 mg): 7.24 L/h/(70 kg)^0.75 | number of doses to achieve full HSD-1 inhibition ([5]; dose level 0.4 mg): 9 to 11 doses | number of doses to achieve full HSD-1 inhibition ([5]; dose level 0.7 mg): 5 to 6 doses | number of doses to achieve full HSD-1 inhibition ([5]; dose level 2 mg): 2 doses | HSD-1 ratio, Day 1 Mean [5, 7]: 0.17 | HSD-1 ratio, Day 1 Median [5, 7]: 0.16 | HSD-1 ratio, Day 18 Mean [5, 8]: 0.11 | HSD-1 ratio, Day 18 Median [5, 8]: 0.11 | mean HSD-1 ratio (significantly decreased HSD-1 activity) ([5]; elderly non-Japanese subjects, 20 mg): approximately 0.1 | HSD-1 ratio (tetrahydrocortisol [5α + 5β]/tetrahydrocortisone), Day 1 Median [5, 9]: 0.19 | HSD-1 ratio (tetrahydrocortisol [5α + 5β]/tetrahydrocortisone), Day 1 mean [5, 9]: 0.18 | HSD-1 ratio (tetrahydrocortisol [5α + 5β]/tetrahydrocortisone), Day 18 Mean [5, 10]: 0.13 | HSD-1 ratio (tetrahydrocortisol [5α + 5β]/tetrahydrocortisone), Day 18 Median [5, 10]: 0.12 | HSD-1 ratio (tetrahydrocortisol [5α + 5β]/tetrahydrocortisone), Day 1 Median [5, 11]: 0.14 | HSD-1 ratio (tetrahydrocortisol [5α + 5β]/tetrahydrocortisone), Day 1 mean [5, 11]: 0.14 | HSD-1 ratio (tetrahydrocortisol [5α + 5β]/tetrahydrocortisone), Day 18 Mean [5, 12]: 0.09 | HSD-1 ratio (tetrahydrocortisol [5α + 5β]/tetrahydrocortisone), Day 18 Median [5, 12]: 0.10 | HSD-1 ratio (tetrahydrocortisol [5α + 5β]/tetrahydrocortisone), Day 1 Median [5, 13]: 0.14 | HSD-1 ratio (tetrahydrocortisol [5α + 5β]/tetrahydrocortisone), Day 1 mean [5, 13]: 0.14 | HSD-1 ratio (tetrahydrocortisol [5α + 5β]/tetrahydrocortisone), Day 18 Mean [5, 14]: 0.10 | HSD-1 ratio (tetrahydrocortisol [5α + 5β]/tetrahydrocortisone), Day 18 Median [5, 14]: 0.09 | mean HSD-1 ratio (significantly decreased HSD-1 activity) ([5]; healthy adult Japanese subjects, doses of 10 mg, 20 mg and 50 mg): 0.1 to 0.2
SMILES: Cn1c(-c2ccc(C(N)=O)cc2F)nnc1C(C)(C)Oc1c(F)cc(Cl)cc1F [Compound A]
Cholesterol [2, 6]: -0.48 ± 0.12 mM | Diastolic BP (mm Hg) [2, 6]: 0 ± 2 mm Hg | HbA1c (%) [2, 6]: −0.31 ± 0.11% | Plasma glucose [2, 6]: 0.084 ± 0.38 mM | Systolic BP (mm Hg) [2, 6]: −1 ± 3 mm Hg | Triglycerides [2, 6]: -0.11 ± 0.09 mM | Urine glucose (% positive) [2, 6]: −2.5 ± 3.0 % positive | Weight [2, 6]: -0.3 ± 0.3 kg | trends compared to placebo on HbA1c, plasma glucose, urine glucose, cholesterol and triglycerides (not on systolic or diastolic blood pressure or weight) ([2]; exploratory descriptive analysis, no hypothesis tests): Favorable numeric trends | pain relief compared to the placebo group ([2]; interim review after 150 subjects completed treatment): not any better | CS-dependent increase of tail biting behavior [3]: fully reversed | Y-maze novel arm exploration behavior (alternation rate) after corticosterone [4]: restored a more normal behavior pattern
